Measurements reported in patent publication US20120070377A1, “COMPOUNDS AND BIOLOGICAL MATERIALS AND USES THEREOF” (priority 2009, published 2012).

Columns and labels:
SKOV3 cells = experiment: Confocal fluorescence microscopy, intracellular localisation with organelle co-stains; type: cell-based, human
Experimental: Imaging took place at the FILM Imperial College London on a LEICA SP5 MP inverted confocal microscope, at 37° C. and under a CO2 supplemented atmosphere. The water objective (63×) was used in all the experiments. Images were processed using the Leica software, Image J and Powerpoint.
Note: in any experiment where a photosensitiser is used on cells, the experiment is done under subdued lighting exposing the cells to as little light as possible and incubating wrapped in foil. Following addition of PS to cells, cells were no longer observed on the microscope.
Cells were plated on a Labt-Tek® 8 Chambered #1.0 Borosilicate Coverglass System. With some cell lines, it is often useful to use an attachment factor (200 μl, 30 mins, 37° C.) to coat the wells first.
Photosensitiser solutions in phenol red free DMEM (10% FBS, 1% P/S, 0.5% DMSO) were prepared fresh and pre-warmed to 37° C. for 15 mins. The cells were washed with media (1×200 μl) before adding the solutions (200 μl per chamber). Unless otherwise stated, the cells were grown over 20 hrs in a humidified atmosphere (37° C., 5% CO2). The cells were washed (2×200 μl) with prewarmed phenol red free DMEM
(§1) Lysotracker® Green DND-26 was diluted according to manufacturers indications (1 mM stock) and further diluted to twice the working concentration in DMEM (10% FBS, 1% P/S). For use for single colour staining, this was diluted with DMEM (10% FBS, 1% P/S) to a final concentration of 1 μM. When it was used for two colour staining with photosensitisers, a 2 μM solution was twice diluted in photosensitiser solution to give a 1 μM final concentration.
The cells were incubated for 15 mins at 4° C. and a further 30 mins at 37° C. before replacing with fresh medium and imaging.
as §1, with “MitoTracker®” for “Lysotracker®”, “Green” for “Green DND-26”
The cells were incubated for 15 mins at 4° C. and a further 1 hr at 37° C. before replacing with fresh medium and imaging.
ER-Tracker™ Green (BODIPY® FL glibenclamide) was diluted according to manufacturer's indications (1 mM stock) and further diluted to twice the working concentration in HBSS buffer (+2% HEPES). For use for single colour staining, this was diluted with HBSS (+2% HEPES) to a final concentration of 3 μM. When it was used for two colour staining with photosensitisers, a 6 μM solution was twice diluted in photosensitiser solution to give a 3 μM final concentration.
The cells were incubated for 15 mins at 4° C. and a further 1 hr at 37° C. before replacing with fresh buffer and imaging.
Bodipy® FL C5-ceramide complexed to BSA was diluted according to manufacturer's indications (0.5 mM stock) and further diluted to twice the working concentration in HBSS buffer (+2 HEPES). For use for single colour staining, this was diluted with HBSS (+2% HEPES) to a final concentration of 5 μM. When it was used for two colour staining with photosensitisers, a 10 μM solution was twice diluted in photosensitiser solution to give a 5 μM final concentration. The cells were incubated for 15 mins at 4° C. and a further 30 mins at 37° C. before washing with cold HBSS/HEPES (3×100 μl) and replacing with either HBSS/HEPES or photosensitiser solution and incubating at 37° C. for a further 30 mins before replacing with fresh buffer and imaging.

[1] = Biodistribution and blood clearance of 125I-radiolabelled photosensitisers and PICs in SKOV3 tumour mice; type: in vivo, BALB/c nude mice; settings: mouse, in vivo, iv
Experimental: 0.1 mg of photosensitiser was dissolved in 0.5 ml PBS. Radiolabelled Iodine (Na^125I, ICN chemicals) was added to 0.1 ml of PBS in Iodogen-coated tubes (Pierce chemicals) and allowed to activate. The activated iodine-125 was transferred to the photosensitiser and allowed to react for 5-10 minutes at room temperature. The radiolabelled photosensitiser was separated from free iodine on a mini silica gel column eluting with 100% PBS to remove the iodinating agent followed by a gradual switch from 10% MeOH/PBS to 100% MeOH with the radiolabelled photosenstiser eluting with 10% MeOH/chloroform. The radiolabelled solutions of the photosensitiser was allowed to air-dry and re-suspended in PBS containing 2% DMSO.
(§2) Female BALB/c nude mice (aged 6-8 weeks old) were implanted with 10^7 SKOV3 tumour cells mixed in 0.1 ml of ice-cold matrigel subcutaneously and the tumours were allowed to grow for 3-6 weeks as xenografts. Mice were maintained in IVC cages (individually-vented cages) in a clean room. Samples were injected in a volume of 0.1 ml, intravenously via the lateral tail vein and the mice were maintained in low light with full food and water (irradiated). At various time points (1-24 hr), mice were culled by cardiac puncture under terminal anesthesia and blood and tissues collected. All the tissues were counted for radioactivity by gamma counting and weighed.
The results are shown as a percentage of radioactive material injected per gram of tissue.
(§3) The PS (PPa and PPa-PEG) were chemically coupled to C6 scFv, radiolabelled with iodogen as before, but dialysed against 3×5 L of PBS to remove the free iodine and injected into BALB/c nude mice with SKOV3 tumours as above. Tissues were dissected and counted as above.

SKOV3 tumour = experiment: Tumour uptake and tumour:blood ratio of radiolabelled photosensitisers and PICs; type: in vivo, BALB/c nude mice; settings: mouse, in vivo
Experimental: as §2, §3
The tumours were counted for radioactivity and expressed as % of the injected dose/g of tumour tissue (FIG. 10).
The percentage PS in the tumour was divided by the percentage in the blood (gram for gram) to give a targeting or tumour:blood ratio (the higher the better). This plotted in FIG. 11. A high tumour:blood ratio means that there is more in the tumour compared to the blood (and other tissues). This is a function of tumour uptake and blood clearance (see FIGS. 9 and 10).

[2] = Skin photosensitivity in a murine model; type: in vivo; settings: laser on the skin after 1 hour, monitored over 4 days, scale of 1-4
Experimental: FIG. 24: Skin photosensitivity of Foscan compared to compound II. Photosensitisers were administered at t=0 hrs and a laser shone on the skin after 1 hour. The skin reaction was followed over time and the results were plotted according to the scale shown.
Skin photosensitivity is an important issue to be resolved in PDT. […] In a murine model, Foscan was administered at clinical doses (ref 109) and compared to compound 11 and a photo-immunoconjugate of compound 11. Skin photosensitivity was monitored over 4 days by observation according to a scale of 1-4 (FIG. 24).

CCC1=C(C)c2cc3[nH]c(c(C)c3CC)c(C#CCCCC(=O)ON3C(=O)CCC3=O)c3nc(c4c5[nH]c(cc1n2)c(C)c5C(=O)C4)[C@@H](CCC(=O)OCc1cc(OCCOCCOCCOC)c(OCCOCCOCCOC)c(OCCOCCOCCOC)c1)[C@@H]3C [compound 11, Meso 5-Ethynylhexanoyl succinimido ester pyropheophorbide a-3,4,5-(triethylene glycolmonomethylether) benzyl ester]
golgi localisation (co-localisation with Bodipy ceramide) (SKOV3 cells; FIG. 20): significant yellow staining
mitochondrial localisation (co-localisation with Mito-tracker) (SKOV3 cells; FIG. 21): significant yellow staining
lysosomal localisation (co-localisation with Lyso-tracker) (SKOV3 cells; FIG. 22): some yellow staining
ER localisation (co-localisation with ER-tracker) (SKOV3 cells; FIG. 23): significant yellow staining
blood clearance [1]: faster than PPa
tumour accumulation relative to the level of PPa (SKOV3 tumour): about ⅓
skin photosensitivity [2]: little or no skin sensitivity
